Measurements: patent publication US20240285497A1, “METHOD FOR EVALUATING AN ABILITY OF A TEST SAMPLE TO TRIGGER A FOREIGN BODY REACTION IN THE SKIN, A METHOD FOR SCREENING A SUBSTANCE HAVING AN ABILITY TO INHIBIT A FOREIGN BODY REACTION IN THE SKIN, AND AN AGENT FOR INHIBITING A FOREIGN BODY REACTION IN THE SKIN” (priority 2021, published 2024)

Experiments:
Type in all cases: cell-based, human
[1] = test system: matrix metalloprotease 2 (MMP2) mRNA; assay: MMP2 mRNA expression in HaCaT cells contacted with test substance, quantitative PCR; conditions: 1 μM, 10 μM and 100 μM, HaCaT cells, 24 hours
Description: In this experiment, the effect of Fraglide-1 on the expression of MMP9 in the level of mRNA was examined first. Specifically, HaCaT cells were treated with Fraglide-1 in the same manner as described in Experiment 3-1 except that HaCaT cells were incubated for 24 hours in the medium containing 0 μM, 1 μM, 10 μM, and 100 μM of Fraglide-1 instead of being incubated for 24 hours in the medium containing both FICZ and Fraglide-1. The total RNA was then extracted, cDNA was prepared, and the quantitative PCR was performed using the obtained cDNA. Herein, the procedure of the quantitative PCR was the same as described in Experiment 3-1 except that the primers shown in below Table 4 were used. In this experiment, the expression of MMP2 mRNA was also quantified in addition to MMP9 mRNA. MMP2 is known as a MMP which is not transcriptionally regulated by a xenobiotic responsive element (XRE). […]
Next, experiments were performed to inhibit MMP9 and MMP2 in HaCaT cells using retinoic acid (CAS RN: 302-79-4) and nicotinamide (CAS RN: 98-92-0), which are known to be substances having anti-wrinkle effect. […] Then, the total RNA was extracted, cDNA was prepared, and the quantitative PCR was carried out using the obtained cDNA. […]

[2] = test system: artemin mRNA; assay: Inhibition of FICZ-induced artemin mRNA expression in HaCaT cells, quantitative PCR
Description: First, HaCaT cells (CLI; Catalogue No.: 300493) were suspended in a DMEM medium at the density of 1×10^5 cell/mL, and 100 μL of the thus obtained suspension was added to each well of white 96-well plates (Thermo Fisher Scientific, MA, U.S.A.; Catalogue No.: 136102) so that the number of the cells in each well was 10,000 cells/well. In accordance with the conventional method, the cells were incubated for 24 hours at 37° C. and 5% CO2. Thereafter, the DMEM medium was removed, and 100 μL of a new DMEM medium containing both FICZ at predetermined concentration (500 nM or 5,000 nM) and Fraglide-1 at a predetermined concentration (0 nM or 250 nM). After incubation for 24 hours at 37° C. and 5% CO2, the total RNA was extracted, cDNA was prepared, and quantitative PCR was carrier out using the obtained cDNA in the same manner as described in Experiment 2. In FIG. 7, the results obtained for each sample were shown as a relative value, with the expression level of artemin mRNA in HaCaT cells incubated 24 hours in DMEM medium containing neither FICZ nor Fraglide-1 set to 1.
As described above, Fraglide-1 inhibited production of artemin induced by FICZ. Then, the following experiment was conducted in order to quantitatively evaluated the effect of inhibiting artemin production exerted by Fraglide-1. Briefly, HaCaT cells were treated with FICZ and Fraglide-1 in the same manner as in Experiment 3-1 except that the concentration of FICZ was set to 5,000 nM and the concentration of Fraglide-1 was set to 0 μM, 0.01 μM, 0.1 μM, 1 μM, 10 μM, and 100 µM, and then the total RNA was extracted, cDNA was prepared, and quantitative PCR was carried out. Based on the obtained result, the inhibition rate (Inhibition (%)) of the artemin mRNA expression triggered by FICZ when a given concentration of Fraglide-1 was added to the cell culture medium together with 5,000 nM of FICZ was calculated in accordance with the following formula. […]

[3] = test system: matrix metalloprotease 9 (MMP9) mRNA; assay: MMP9 mRNA expression in HaCaT cells contacted with test substance, quantitative PCR; conditions: HaCaT cells, 24 hours
Description: In this experiment, the effect of Fraglide-1 on the expression of MMP9 in the level of mRNA was examined first. Specifically, HaCaT cells were treated with Fraglide-1 in the same manner as described in Experiment 3-1 except that HaCaT cells were incubated for 24 hours in the medium containing 0 μM, 1 μM, 10 μM, and 100 μM of Fraglide-1 instead of being incubated for 24 hours in the medium containing both FICZ and Fraglide-1. The total RNA was then extracted, cDNA was prepared, and the quantitative PCR was performed using the obtained cDNA. Herein, the procedure of the quantitative PCR was the same as described in Experiment 3-1 except that the primers shown in below Table 4 were used. In this experiment, the expression of MMP2 mRNA was also quantified in addition to MMP9 mRNA. MMP2 is known as a MMP which is not transcriptionally regulated by a xenobiotic responsive element (XRE).
(§1) In FIG. 9 and FIG. 10, the results obtained for each sample were shown as a relative value, with the mRNA expression level of MMP9 or MMP2 in the HaCaT cells incubated for 24 hours in DMEM medium without FICZ (i.e., the non-treated HaCaT cells) set to 1. The results shown in FIG. 9 and FIG. 10 were the mean obtained from three independent experiments. The error bars represent the standard deviation (SD).
Next, experiments were performed to inhibit MMP9 and MMP2 in HaCaT cells using retinoic acid (CAS RN: 302-79-4) and nicotinamide (CAS RN: 98-92-0), which are known to be substances having anti-wrinkle effect. Briefly, HaCaT cells were made in contact with retinoic acid and nicotinamide in the same manner as in Experiment 4-1 except that retinoic acid and nicotinamide were used instead of Fraglide-1. Then, the total RNA was extracted, cDNA was prepared, and the quantitative PCR was carried out using the obtained cDNA.
as §1, with “FIG. 12” for “FIG. 9”, “FIG. 13,” for “FIG. 10,”, “medium containing neither retinoic acid nor nicotinamide” for “medium without FICZ”, “FIG. 13” for “FIG. 10”

[4] = test system: HaCaT cells; assay: Safety evaluation: cell viability of HaCaT cells by WST-1 method; conditions: 24 hours
Description: The safety of Fraglide-1 was examined by a viable cell counting method using a water-soluble tetrazolium salt (WST-1). Specifically, HaCaT cells were suspended in DMEM medium at the concentration of 1×10^5 cells/mL. The obtained cell suspension was seeded in a white 96-well plate (ThermoFisher Scientific; Catalogue No. 136102) in an amount of 100 μL per well so that the number of cells per well was 10,000 cells/well. After 24 hours incubation at 37° C. and 5% CO2 in accordance with a conventional method, DMEM medium was removed and then either 100 μL of DMEM medium containing Fraglide-1 at a predetermined concentration or, as a control, 100 μL of DMEM medium not containing Fraglide-1 was added, followed by further incubation for 24 hours at 37° C. and 5% CO2. After the incubation for 24 hours, the number of viable cells was measured by using a premix reagent containing WST-1 (“Premix WST-1 Cell Proliferation Assay System”, Catalogue No. MK400, Takara Bio Inc., Shiga, Japan) in accordance with the procedure described in Experiment 1-2. The results shown in FIG. 16 are the mean of values obtained from three independent experiments, and the error bars represent standard error (SE).

## O=C1C=C(c2ccccc2)C(O)O1 (stereo not drawn) [Fraglide-1, 5-hydroxy-4-phenyl-2(5H)butenolide]
[1]
  MMP2 mRNA expression: no decrease in the mRNA expression was observed
[2]; 100 nM (0.1 μM) Fraglide-1, 5,000 nM FICZ
  Inhibition (%) of artemin mRNA expression triggered by FICZ: approximately 50%
[2]; 250 μM Fraglide-1 plus 500 nM or 5,000 nM FICZ, 24 hours
  expression level of artemin mRNA compared to cells without FICZ: no increase in the expression level of artemin mRNA was observed
[2]; Fraglide-1 0.01-100 μM, 5,000 nM FICZ
  inhibition of FICZ-induced expression of artemin, dependence on concentration: in the concentration dependent manner
[3]; 1 μM
  decrease of expression level of MMP9 mRNA compared to medium without Fraglide-1: approximately 42%
[3]; 10 μM
  decrease of expression level of MMP9 mRNA compared to medium without Fraglide-1: ~52%
[3]; 100 μM
  decrease of expression level of MMP9 mRNA compared to medium without Fraglide-1: ~80%
[4]; 500 μM, HaCaT cells
  cell viability: more than 50%
[4]; read-out: LC50 (Median Lethal Concentration) against HaCaT cells
  CC50: > 500 µM
